Read-outs that look alike come from different tables or passages of the source. Each block holds one substance with its values, some of them ahead of it.
Experiments:
granzyme B = conditions: tetrapeptide with C-terminus aspartate modified to aldehyde; ref [21],[22]; cited from earlier work
[1] = system: advanced non-small cell lung cancer; conditions: ref [8], cited from earlier work
[2] = molecular target: granzyme B (activated from pro-granzyme B) (UniProt P04187); test: enzyme inhibition assay
Chain of UniProt P04187 (P04187 21-247): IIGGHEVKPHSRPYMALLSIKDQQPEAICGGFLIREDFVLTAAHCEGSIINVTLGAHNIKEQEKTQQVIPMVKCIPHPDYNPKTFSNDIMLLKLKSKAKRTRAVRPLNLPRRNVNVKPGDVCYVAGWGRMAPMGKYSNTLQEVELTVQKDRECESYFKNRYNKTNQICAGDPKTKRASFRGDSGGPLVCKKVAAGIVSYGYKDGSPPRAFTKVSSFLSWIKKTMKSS

Substance: Ile-Glu-Phe-Asp
Ki (granzyme B): 80 nM

Substance: pembrolizumab
response rate ([1]; patients with >1% positive PD-L1 staining): 18%
response rate ([1]; tumors with greater than 50% positive staining for PD-L1): 30%

Ki [2]: 47 nM
Substance: NOTA–β-Ala–Gly–Gly–Ile–Glu–Phe–Asp–CHO (NOTA-GZP), gallium-labelled (peptide)

From article PMC5474226 (Cancer research, 2017)
